Literature values as cited in patent US20080171740A1, “Chemical Compounds” (SMITHKLINE BEECHAM CORPORATION, priority 2004, published 2008).

Tested on: T-tropic HIV
Details: patients that are dual tropic or where only the T-tropic form is present; cited from earlier work

c1cc(CN2CCCNCCNCCCNCC2)ccc1CN1CCCNCCNCCCNCC1 [AMD-3100]
T-tropic HIV viral load: significantly reduce T-tropic HIV viral load
